Results from patent US11179407B2, “Method for synthetically producing arabinogalactan compounds derived from plants and uses of said compounds for the prophylaxis of allergic reactions” (Forschungszentrum Borstel Leibniz-Zentrum für Medizin und …, priority 2015, dated 2021).

Assays:
IgE = test: total IgE in BAL fluid by ELISA in OVA/Alum mouse model; assay type: in vivo, mouse (BALB/c); settings: FIG. 3, i.n. treatment
Procedure: (§1) Mice were sensitized by intraperitoneal injection of 20 μg ovalbumin (OVA; GradeV; Sigma, St. Louis, Mo.) emulsified in 2.2 mg aluminum hydroxide (ImjectAlum; Pierce, Rockford, Ill.) in a total volume of 200 μl on days 1 and 14. On days 28 and 38 mice were challenged via the airways with 1% OVA aerosol for 20 min using a PARI-Boy aerosol generator.
(§2) Mice were treated with the synthetic substances during the sensitization phase. Substances were administered intranasally in 50 μl of PBS. Mice were treated 14 times beginning on the day of the first OVA injection and the last treatment six days before the second OVA-aerosol challenge. Control groups were sensitized as described above and treated 14 times with phosphate buffered saline (PBS).
Blood was collected by tail vein puncture two days after the second aerosol challenge. BAL was collected as described above. Levels of total IgE in serum or BAL fluid were determined by ELISA (Ebioscience). Levels of BSA-specific IgG1 were determined by indirect ELISA. Briefly, plates were coated with 50 μg/ml BSA followed by blocking with 1% low fat milk powder. The serum was diluted 1/100 in PBS and incubated on the BSA coated wells for 1 h, followed by detection of bound antibodies by alkaline phosphatase coupled rat anti mouse IgG1 (BDbiosciences).

[1] = tested on: allergic airway inflammation; test: mouse model of allergic airway inflammation (OVA/Alum sensitization, OVA aerosol challenge): BAL cells and lung sections; assay type: in vivo, mouse (BALB/c)
Procedure: Female BALB/c mice (Charles River, Sulzfeld, Germany) aged 7-8 weeks were used and acclimated to the animal facility for 14 days prior to experiments. Animals had access to food and water ad libitum. All experimental procedures were approved by the responsible animal ethics committees. Mice were sensitized by intraperitoneal injection of 20 μg ovalbumin (OVA; GradeV; Sigma, St. Louis, Mo.) emulsified in 2.2 mg aluminum hydroxide (ImjectAlum; Pierce, Rockford, Ill.) in a total volume of 200 μl on days 1 and 14. On days 28 and 38 mice were challenged via the airways with 1% OVA aerosol for 20 min using a PARI-Boy aerosol generator. Mice were treated with the synthetic substances during the sensitization phase. Substances were administered intranasally in 50 μl of PBS. Mice were treated 14 times beginning on the day of the first OVA injection and the last treatment six days before the second OVA-aerosol challenge. Control groups were sensitized as described above and treated 14 times with phosphate buffered saline (PBS). Three days after OVA challenge lungs were lavaged via a tracheal tube with 2×1 ml PBS, and leukocytes in the lavage fluid were counted. After centrifugation, BAL fluid was frozen for further analysis. […] The percentages of eosinophils, lymphocytes and macrophages in BAL samples were determined by light microscopy. […]

[2] = tested on: IL-5 and IL-13 production by spleen cells; test: in vitro cytokine production (IL-5, IL-13) of mouse splenocytes re-stimulated with OVA after in vivo treatment; set-up: species or system mouse (BALB/c); settings: FIG. 3, i.n. treatment during sensitization and challenge
Procedure: as §1, §2
Spleens were harvested 3 days after the second aerosol challenge. Single cell suspensions were prepared by mechanical disruption and erythrocytes were lysed. Spleen cells were then cultured at a concentration of 5×10^6/ml in complete tissue culture medium (CTCM) (RPMI 1640 with 10% fetal calf serum (FCS), 2 mM L-glutamine, 100 U/ml penicillin, 100 μg/ml streptomycin, all from Biochrom, Berlin, Germany). To stimulate specific cytokine production OVA was added to a final concentration of 50 μg/ml. […] Levels of IL-5 and IL-13 were assessed by using optEIA kits (BD Biosciences, Heidelberg, Germany) according to the manufacturer's instructions.

OCC1O[C@@H](OCC2O[C@@H](OCC3O[C@@H](OCCCCCc4ccc(N=C=S)cc4)C(O)C(O)[C@H]3O)C(O)C(O[C@H]3O[C@@H](CO[C@@H]4O[C@@H](CO)C(O)C4O)C(O)C3O)[C@H]2O)C(O)C(O)[C@H]1O (stereo partly shown) [Araf2Galp3]
IgE production (IgE): not able to reduce these parameters significantly | eosinophilic airway inflammation ([1]; FIG. 3, i.n. treatment, BAL): not able to reduce these parameters significantly | goblet cell metaplasia ([1]; FIG. 3 experiment, determined in lung sections): not able to reduce these parameters significantly | Th2 response as measured by in vitro production of IL-5 and IL-13 by spleen cells [2]: not able to reduce these parameters significantly
